Experimental data taken from patent publication US6440680B1, “Methods of identifying modulators of prostaglandin receptor EP1” (Merck Frosst Canada, Inc., priority 1993, dated 2002).
One block for each compound: values may come before it.

How the values were obtained:
EP1 receptor [1] = biological target: T1, EP1 receptor (Homo sapiens, UniProt P34995, A71T/L230H); assay: Aequorin luminescence assay in pcDNA-EP1-injected Xenopus oocytes; assay type: cell-based; settings: for agonist potency from dose-response of aequorin light emission: aequorin-loaded oocytes, FIG. 4E
T1 sequence (P34995 1-402 A71T/L230H): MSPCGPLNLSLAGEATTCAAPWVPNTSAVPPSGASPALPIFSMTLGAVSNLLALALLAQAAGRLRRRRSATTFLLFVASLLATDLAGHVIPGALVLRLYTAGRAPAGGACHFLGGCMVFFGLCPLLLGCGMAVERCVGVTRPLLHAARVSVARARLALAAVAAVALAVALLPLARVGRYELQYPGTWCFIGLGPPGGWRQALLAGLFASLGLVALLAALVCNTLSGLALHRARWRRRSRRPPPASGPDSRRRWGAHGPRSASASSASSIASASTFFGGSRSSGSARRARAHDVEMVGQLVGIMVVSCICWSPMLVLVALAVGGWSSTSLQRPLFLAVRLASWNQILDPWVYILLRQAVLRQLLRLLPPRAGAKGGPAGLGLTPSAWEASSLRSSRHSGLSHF
Method: (§1) FIG. 4A-E—Expression of prostaglandin E2 receptor in Xenopus oocytes. Panel A: An inward Ca^2—dependent Cl^− current (shown as downward deflection) evoked by bath perfusion of 1 μM PGE2. The oocyte was injected with 5 ng of pcDNA-EP1 (Bam) and voltage-clamped at −60 mV. Panel B-D: PGE2-induced light responses in aequorin loaded oocytes. The intensity of aequorin light emission is expressed in relative units and the background emission typically was 0.5-0.7 units units. The PGE2 was injected into the recording cuvette at 10 s at a final concentration indicated on each trace Panel E; Light responses were evoked by different concentrations of PGE2 and PGF2α. Each bar represents the mean±s.e.m. of data from 10 to 15 oocytes from 4 donors. Data are expressed as the percentage of the response observed with 1 μM of PGE2.
Oocytes were taken from adult females of Xenopus laevis using standard surgical procedure (Colman, A., 1984 In: Transcription and Translation—A Practical Approach, IRL Press). To remove follicle cells, oocytes were treated for 2-3 h with freshly made collagenase (2 mg/ml, type 2, Worthington Biochemical Corp., Freehold, N.J.) in Ca^2+-free ND96 solution (ND96 in mM: NaCl 96, KCl 2, MgCl2 1, HEPES 5, Na-pyruvate 2.5, theophylline 0.5, gentamicin […], +1.8 CaCl2, pH 7.6). […] Functional activity was determined by measurement of either agonist-induced Ca^2+-dependent Cl^− current or light emission in oocytes injected with the Ca^2+-specific photoprotein aequorin (J. Blinks, Friday Harbor Photoproteins, Washington), (Giladi and Spindel 1991 Biotechniques, 10, pp 744-747). […] Ligand-containing solution was perfused and the current response was recorded. For the luminometric assay, aequorin-loaded oocytes (100 ng/ooctye) were placed individually in cuvettes containing 0.4 ml ND96 and the light emission provoked by ligand addition was recorded using a Bio-Orbit 1251 luminometer (Fisher Sci. Ltd.).
Functional activity was determined in pcDNA-EP1-injected oocytes using electrophysiological and aequorin luminescence assays. […]

EP1 receptor [2] = biological target: T1, EP1 receptor; assay: [3H]PGE2 binding assay with membranes of pcDNA-EP1-transfected COS-M6 cells; design: expressed in transfected cells; host or cells: COS-M6 cells (membrane fraction); settings: for rank order of potency for competition for [3H]PGE2 specific binding: FIG. 3A, 0.03 nM-10 μM competitor; for IC50: 0.5 nM [3H]PGE2, FIG. 3B, read-out: IC50 for competition for [3H]PGE2 specific binding
Method: FIGS. 3A-3B—Competition for [^3H]PGE2 binding to pcDNA-EP1-transfected COS-M6 membranes: [^3H]PGE2 binding assays were performed as described in the Methods in the presence of Panel A: 0.03 nM-10 μM PGE2 (Δ), PGE1 (▪), PGF2α (□), PGD2 (●), Panel B: 3 nM-100 μM AH6809 (◯), SC19220 (Δ), and Butaprost (⋄). Butaprost and AH 6809 were generous gifts from Miles Inc. and Glaxo Group Research Ltd.
The pcDNA-EP1 plasmid was transfected into COS-M6 Cells using the DEAE-dextran method. The cells were maintained in culture for 72 h, then harvested and membranes prepared by differential centrifugation (1000×g or 10 min, then 100,000×g for 30 min) following lysis of the cells by nitrogen cavitation (Frey, et al., 1993). [3H]Prostaglandin E2 ([^3H]PGE2) binding assays were performed in 10 mM potassium phosphate (pH 6.0), containing 1 mM EDTA, 0.5 nM [^3H]PGE2 (154 Ci/mmol; DuPont-New England Nuclear) and 60-100 μg of protein from the 100,000×g membrane fraction. Incubations were conducted for 1 h at room temperature prior to separation of the bound and free radioligand by rapid filtration as previously described (Frey et al., 1993 Eur. J. Mol. Pharmacol., 244, pp 239-250). Residual [3H]PGE2 bound to the filter was quantitated by liquid scintillation counting. Specific binding was defined as the difference between total binding and non-specific binding, determined in the presence of 1 μM PGE2.

thromboxane receptor = biological target: T2, thromboxane receptor (Homo sapiens, UniProt P21731); assay: Binding of SQ-29548 in human embryonic kidney 293 cells and membranes transfected with thromboxane-receptor cDNA
T2 construct: use of Vent polymerase (New England Biolabs) enabled amplification of the complete cDNA; expressed in transfected cells; host or cells: human embryonic kidney 293 cells and membranes
T2 sequence (P21731 1-343): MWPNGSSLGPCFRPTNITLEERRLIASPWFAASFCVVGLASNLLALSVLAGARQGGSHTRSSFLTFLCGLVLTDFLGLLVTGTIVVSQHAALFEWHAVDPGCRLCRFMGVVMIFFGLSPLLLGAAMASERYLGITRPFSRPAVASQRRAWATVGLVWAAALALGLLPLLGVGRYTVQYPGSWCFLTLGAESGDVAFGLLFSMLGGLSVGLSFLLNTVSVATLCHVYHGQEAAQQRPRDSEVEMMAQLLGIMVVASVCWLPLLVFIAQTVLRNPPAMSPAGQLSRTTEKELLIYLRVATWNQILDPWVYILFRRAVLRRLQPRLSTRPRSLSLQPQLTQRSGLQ
Source text: The thromboxane receptor has been expressed in Xenopus oocytes. It can couple with endogenous signal transduction components to elicit a calcium-activated Cl^− current recorded by electrophysiological measurement using the procedure described by Hirata, M. et al., (1991), Nature, 349, pp. 617. Binding studies have been performed with COS-1 cell membranes transfected by thromboxane receptor cDNA using the ligand S-145 (Hirata, M. et al., (1991), Nature, 349, pp. 617). […] This level of expression is at least 5-10 times higher than in platelet membranes. On a per-cell basis assuming a 10% transfection efficiency, we estimate ≈10^6 binding sites/tranfected cell as compared to ≈1300 sites present on a platelet (Hourani, S. M. O. et al., (1991), Pharmacol. Rev., 43, pp. 243).

EP1 receptor [3] = biological target: T1, EP1 receptor; assay: Electrophysiological assay (Ca2+-dependent Cl- current) in pcDNA-EP1-injected Xenopus oocytes; assay type: cell-based; settings: bath perfusion of 1 μM PGE2, voltage clamped at -60 mV
Method: as §1
Oocytes were taken from adult females of Xenopus laevis using standard surgical procedure (Colman, A., 1984 In: Transcription and Translation—A Practical Approach, IRL Press). […] Functional activity was determined by measurement of either agonist-induced Ca^2+-dependent Cl^− current or light emission in oocytes injected with the Ca^2+-specific photoprotein aequorin (J. Blinks, Friday Harbor Photoproteins, Washington), (Giladi and Spindel 1991 Biotechniques, 10, pp 744-747). […] Ligand-containing solution was perfused and the current response was recorded. […]

rank order of potency for competition for [3H]PGE2 specific binding (EP1 receptor [2]): PGE2>PGE1>PGF2α>>PGD2
SMILES: CCCCC[C@H](O)/C=C/[C@H]1C(=O)C[C@H](O)[C@@H]1C/C=C\CCCC(=O)O [PGD2]

IC50 (EP1 receptor [2]): 50 µM
activity at the [3H]PGE2 specific binding sites (EP1 receptor [2]; FIG. 3B): relatively inactive
SMILES: CCCC1([C@H](O)C/C=C/[C@H]2[C@H](O)CC(=O)[C@@H]2CCCCCCC(=O)OC)CCC1 [butaprost]

IC50 (EP1 receptor [2]): ~6.7 µM
SMILES: CC(=O)NNC(=O)N1Cc2ccccc2Oc2ccc(Cl)cc21 [SC 19220]

binding affinity (thromboxane receptor): high affinity binding
maximal binding (thromboxane receptor): 2-3 pmol/mg protein
SMILES: O=C(O)CCC/C=C\C[C@@H]1[C@H](CNNC(=O)Nc2ccccc2)[C@H]2CC[C@@H]1O2 [SQ-29548]

IC50 (EP1 receptor [2]): ~0.5 µM
SMILES: CC(C)Oc1ccc2c(=O)c3cc(C(=O)O)ccc3oc2c1 [AH 6809]

Second part, the compound before the results:

SMILES: CCCCC[C@H](O)/C=C/[C@@H]1[C@@H](C/C=C\CCCC(=O)O)[C@@H](O)C[C@H]1O [PGF2α]
agonist potency from dose-response of aequorin light emission (EP1 receptor [1]): PGE2 was more potent agonist of the expressed receptor when compared to PGF2α
rank order of potency for competition for [3H]PGE2 specific binding (EP1 receptor [2]): PGE2>PGE1>PGF2α>>PGD2

SMILES: CCCCC[C@H](O)/C=C/[C@H]1[C@H](O)CC(=O)[C@@H]1C/C=C\CCCC(=O)O [[^3H]PGE2, [3H]Prostaglandin E2]
maximum number of specific binding sites (Bmax) (EP1 receptor [2]; Scatchard analysis, pcDNA-EP1 transfected COS-M6 cell membranes): approximately 360 fmol/mg of protein
Kd (EP1 receptor [2]; Scatchard analysis, pcDNA-EP1 transfected COS-M6 cell membranes, read-out: equilibrium dissociation constant (KD)): 0.001 µM

SMILES: CCCCC[C@H](O)/C=C/[C@H]1[C@H](O)CC(=O)[C@@H]1C/C=C\CCCC(=O)O [PGE2]
Ca2+-dependent Cl- current response (EP1 receptor [3]): prominent current responses
agonist potency from dose-response of aequorin light emission (EP1 receptor [1]): more potent agonist of the expressed receptor when compared to PGF2α
intracellular calcium in pcDNA-EP1 injected oocytes (EP1 receptor [1]; oocytes challenged with PGE2): dose-dependent increase in intracellular calcium
rank order of potency for competition for [3H]PGE2 specific binding (EP1 receptor [2]): PGE2>PGE1>PGF2α>>PGD2

SMILES: CCCCC[C@H](O)/C=C/[C@H]1[C@H](O)CC(=O)[C@@H]1CCCCCCC(=O)O [PGE1]
rank order of potency for competition for [3H]PGE2 specific binding (EP1 receptor [2]): PGE2>PGE1>PGF2α>>PGD2
